Measurements: US20050107441A1, “Compositions and methods for altering glucose production” (priority 2001, published 2005)

Tests used:
SHP mRNA = assay: Insulin treatment of ZDF rats, real-time quantitative PCR of liver RNA: SHP mRNA; format: in vivo, Zucker diabetic fatty (ZDF) rats; conditions: pooled RNA samples, 6 hours after subcutaneous insulin vs vehicle (0.9% normal saline)
Method: (§1) In these experiments, ZDF rats were treated for 6 hours with insulin or vehicle (0.9% normal saline) alone. At the end of this period, the rats were killed and RNA prepared from their livers. […] Conversely, PEPCK levels decreased by approximately 2 fold in response to insulin.
(§2) All procedures performed were in compliance with the Animal Welfare Act, USDA regulations and approved by the GlaxoSmithKline Institutional Animal Care and Use Committee. Animals were housed at 72 F and 50% relative humidity with a 12 hour light and dark cycle, and fed chow diet (Formulab Diet 5008, PMI Feeds Inc., Richmond, Ind.). Insulin-treated animals received a mixture of HUMULIN®N and HUMULIN®R (Lilly, Indianapolis, Ind.) by subcutaneous injection and were sacrificed six hours later. RTQ-PCR was performed using an ABI PRISM 7700 Sequence Detection System instrument and software (PE Applied Biosystems, Inc., Foster City, Calif.) in accordance with procedures described by Way et al. (Endocrinology 2001 142: 1269-77). Primers used include:Rat PEPCK forward: TGAGGAAGTTTGTGGAAG (SEQ ID NO:1) • Rat PEPCK reverse: GCCGTCGCAGATGTGAAT (SEQ ID NO:2) • Rat PEPCK probe: TGCCCAGCTGTGCCAGCC (SEQ ID NO:3) • Rat SHP forward: TGGTACCCAGCTAGCCAAG (SEQ ID NO:4) • Rat SHP reverse: TGTTCTTGAGGGTGGAAGC (SEQ ID NO: 5) • Rat SHP probe: CGCCTGGCCCGAATCCTCC (SEQ ID NO:6) [drawing]

PEPCK = assay: Insulin treatment of ZDF rats, real-time quantitative PCR of liver RNA: PEPCK mRNA; format: in vivo, Zucker diabetic fatty (ZDF) rats; conditions: pooled RNA samples, 6 hours after subcutaneous insulin vs vehicle (0.9% normal saline)
Method: as §1, §2

insulin
SHP mRNA levels increased in response to insulin (SHP mRNA): approximately 17 fold | PEPCK levels decreased in response to insulin (PEPCK): approximately 2 fold
